Laboratory results as given in patent publication EP0309566B1, “STLV-III-RELATED POLYPEPTIDES, DIAGNOSTIC SYSTEMS AND ASSAY METHODS” (JOHNSON AND JOHNSON, priority 1987, dated 1994).

Columns and labels:
antibodies to HIV-2 = test: Specificity ELISA (Example 12, Figure 3), HIV-2 antibody positive sera; assay type: binding, human; settings: 20 sera containing antibodies to HIV-2 but not to HIV-1 TMP gp41 (West Africans); positive O.D. above 0.150
antibodies against HIV-2 = test: ELISA with STLV-III polypeptides p80 and p81, alone and in combination; assay type: binding, human; settings: two sera containing high titers of antibodies against HIV-2, diluted 1:10; 490nm
Protocol: Preliminary studies using two sera containing high titers of antibodies against HIV-2 were performed by ELISA using each of p80 and p81 alone and in combination. One hundred microliters (ul) of 0.01M NaHCO₃, pH 9.6, containing 1 microgram (ug) of either p80 or p81 or a combination (admixture) of 1 ug of p80 and 1 ug of p81 were admixed into the wells of Immunolon II microtiter plates (Dynatech, Alexandria, VA). The plates were then maintained for about 16 hours at 4 degrees C to permit the polypeptides to adsorb onto (coat) the walls of the wells. After removing the polypeptide coating solution by shaking, 300 ul of PBS containing 1% bovine serum albumin (BSA), 5mM benzamidine, 10 kilounits Aprotinin, 10ug/ml Trypsin Inhibitor, 10mM EACA, 0.5mM PMSF, 2mM EDTA and 10% glycerol were admixed into each well to block excess protein binding sites. […]
Two hundred ul of OPD substrate were then admixed into each well to form a developing-reaction admixture. After maintaining the developing-reaction admixture for 30 minutes at about 20 degrees C, 50 ul of 4N H₂SO₄ were admixed into each well to stop the developing-reaction, and the resulting solutions were assayed for absorbance at 490nm using a microtiter plate reader.

antibodies against HIV-1 = test: Specificity ELISA (Example 12, Figure 3), HIV-1 antibody positive sera; assay type: binding, human; settings: 20 sera with antibodies against HIV-1; positive O.D. above 0.150
Description: In the Figures forming a portion of the disclosure of this invention: • Figure 1 illustrates a portion of the STLV-IIImac TMP amino acid residue sequence. The sequence is shown from left to right and in the direction of amino-terminus to carboxy-terminus in a single-letter code. The residue positions have been numbered as illustrated from 1-33. • Figure 2 illustrates, in a manner similar to Figure 1, a portion of the amino acid residue sequence of the HIV-1 TMP and represent gp41 amino acid residues […] as described in Ratner et al., Nature, 313:277-283 (1985). However, for ease of discussion, those residue positions have been renumbered as illustrated from 1-32. • Figure 3 contains 2 panels illustrating antibody determinations using a diagnostic system of this invention to assay (a) 20 sera from individuals in Guinea-Bissau previously determined to have antibodies against HIV-related viruses (West Africans), (b) 20 sera from HIV-1-infected individuals and (c) 20 sera from blood donors without antibodies to HIV-1 or HIV-2. Sera were considered positive (closed symbols) when they produced optical density (O.D.) values above 0.150 (the mean O.D. of negative samples plus 6 standard deviations). Negative sera are represented by open symbols. […]

24 sera = test: Comparison of peptide p80 based and peptide p81 based ELISA, 24 sera; assay type: binding; settings: for Ratio p80:p81: absorbance value ratio
Description: The absorbance values obtained for each of 24 sera in a peptide p80 based ELISA were divided by those obtained in a peptide p81 based ELISA. The resulting absorbance value ratios are shown in ranked order in Table 14.

With AIEKYLEDQAQLNAWCAFRQVC [p80] the immunoreaction with sera (antibodies to HIV-2) was “pronounced reactions”, the absorbance values (antibodies against HIV-2) was “greater than 1.1” and the immunoreaction with sera (antibodies against HIV-1) was “with one exception, produced no substantial immunoreaction”. For the same sequence, the absorbance value (24 sera; Serum No. 3541) was 0.181, the “Ratio p80:p81” value (24 sera; Serum No. 3541) was 7.240 and the absorbance value (24 sera; Serum No. 3616) was 0.686. For the same sequence, the “Ratio p80:p81” value (24 sera; Serum No. 3616) was 14.600, the absorbance value (24 sera; Serum No. 3743) was 0.257 and the “Ratio p80:p81” value (24 sera; Serum No. 3743) was 6.425. The absorbance value (24 sera; Serum No. 3923) was 0.180, the “Ratio p80:p81” value (24 sera; Serum No. 3923) was 2.687 and the absorbance value (24 sera; Serum No. 3942) was 0.588. The “Ratio p80:p81” value (24 sera; Serum No. 3942) was 11.530, the absorbance value (24 sera; Serum No. 5160) was 0.251 and the “Ratio p80:p81” value (24 sera; Serum No. 5160) was 1.064. The absorbance value (24 sera; Serum No. 5182) was 0.162, the “Ratio p80:p81” value (24 sera; Serum No. 5182) was 1.588 and the absorbance value (24 sera; Serum No. 5727) was 0.504. The “Ratio p80:p81” value (24 sera; Serum No. 5727) was 0.895, the absorbance value (24 sera; Serum No. 5740) was 2.000 and the “Ratio p80:p81” value (24 sera; Serum No. 5740) was 46.510. For the same sequence, the absorbance value (24 sera; Serum No. 6598) was 0.072, the “Ratio p80:p81” value (24 sera; Serum No. 6598) was 0.351 and the absorbance value (24 sera; Serum No. 6599) was 0.206. The “Ratio p80:p81” value (24 sera; Serum No. 6599) was 0.888, the absorbance value (24 sera; Serum No. 6600) was 0.359 and the “Ratio p80:p81” value (24 sera; Serum No. 6600) was 1.173. For the same sequence, the absorbance value (24 sera; Serum No. 6601) was 0.353, the “Ratio p80:p81” value (24 sera; Serum No. 6601) was 2.558 and the absorbance value (24 sera; Serum No. 6602) was 0.516. The “Ratio p80:p81” value (24 sera; Serum No. 6602) was 516.000, the absorbance value (24 sera; Serum No. 6603) was 1.152 and the “Ratio p80:p81” value (24 sera; Serum No. 6603) was 2.736. For the same sequence, the absorbance value (24 sera; Serum No. 6604) was 1.808, the “Ratio p80:p81” value (24 sera; Serum No. 6604) was 4.520 and the absorbance value (24 sera; Serum No. 6631) was 0.153. The “Ratio p80:p81” value (24 sera; Serum No. 6631) was 0.537, the absorbance value (24 sera; Serum No. 6650) was 0.700 and the “Ratio p80:p81” value (24 sera; Serum No. 6650) was 20.590. For the same sequence, the absorbance value (24 sera; Serum No. 6661) was 0.647, the “Ratio p80:p81” value (24 sera; Serum No. 6661) was 4.044 and the absorbance value (24 sera; Serum No. 6665) was 0.254. For the same sequence, the “Ratio p80:p81” value (24 sera; Serum No. 6665) was 4.792, the absorbance value (24 sera; Serum No. 6674) was 2.000 and the “Ratio p80:p81” value (24 sera; Serum No. 6674) was 7.752. The absorbance value (24 sera; Serum No. 6683) was 0.387, the “Ratio p80:p81” value (24 sera; Serum No. 6683) was 0.791 and the absorbance value (24 sera; Serum No. 6698) was 2.000. The “Ratio p80:p81” value (24 sera; Serum No. 6698) was 90.910, the absorbance value (24 sera; Serum No. 6877) was 0.248 and the “Ratio p80:p81” value (24 sera; Serum No. 6877) was 31.000.
